Earlier results, collected in patent US20200360268A1, “INJECTABLE PHARMACEUTICAL COMPOSITION CONTAINING MELOXICAM, AND PREPARATION METHOD THEREFOR” (Jiangsu Hengrui Medicine Co., Ltd., priority 2017, published 2020).
In brackets after ≈: the same amount, converted by molar mass.

Settings: pH 1.2 and 4.0

- solubility: 0.6 µg/mL (≈ 1.71 µM)
Compound: Cc1cnc(NC(=O)C2=C(O)c3ccccc3S(=O)(=O)N2C)s1 [Meloxicam]
